Reference: PubChem BioAssay AID1963840 (Molecular Pharmacology Branch, DTP, NCI, 2024)

Test system: 695427-040-R-J1-PDC complex spheroid viability
Test: Anticancer human tumor 695427-040-R-J1-PDC patient-derived colon adenocarcinoma cell line growth inhibition [POLQ]
Conditions: for IC50: curve of first compound; for viability, T/C: stronger effect = lower value
How it was run: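 Complex spheroid viability model combining PDC tumour cells with endothelial (HUVEC) and MSC stromal cells. Novobiocin, ART-558 or RP6685 were tested singly and in combination with standard and investigational anticancer drugs. Each was titrated in half-log steps from near clinical Cmax, or from 10 microM where Cmax was unknown.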

[1] = second compound 0.0316 µM, first compound 0.0316 µM
[2] = second compound 0.0316 µM, first compound 0.1 µM
[3] = second compound 0.0316 µM, first compound 0.316 µM
[4] = second compound 0.0316 µM, first compound 1 µM
[5] = second compound 0.0316 µM, first compound 3.16 µM
[6] = second compound 0.0316 µM, first compound 10 µM
[7] = second compound 0.1 µM, first compound 0.0316 µM
[8] = second compound 0.1 µM, first compound 0.1 µM
[9] = second compound 0.1 µM, first compound 0.316 µM
[10] = second compound 0.1 µM, first compound 1 µM
[11] = second compound 0.1 µM, first compound 3.16 µM
[12] = second compound 0.1 µM, first compound 10 µM
[13] = second compound 0.316 µM, first compound 0.0316 µM
[14] = second compound 0.316 µM, first compound 0.1 µM
[15] = second compound 0.316 µM, first compound 0.316 µM
[16] = second compound 0.316 µM, first compound 1 µM
[17] = second compound 0.316 µM, first compound 3.16 µM
[18] = second compound 0.316 µM, first compound 10 µM
[19] = second compound 1 µM, first compound 0.0316 µM
[20] = second compound 1 µM, first compound 0.1 µM
[21] = second compound 1 µM, first compound 0.316 µM
[22] = second compound 1 µM, first compound 1 µM
[23] = second compound 1 µM, first compound 3.16 µM
[24] = second compound 1 µM, first compound 10 µM
[25] = second compound 3.16 µM, first compound 0.0316 µM
[26] = second compound 3.16 µM, first compound 0.1 µM
[27] = second compound 3.16 µM, first compound 0.316 µM
[28] = second compound 3.16 µM, first compound 1 µM
[29] = second compound 3.16 µM, first compound 3.16 µM
[30] = second compound 3.16 µM, first compound 10 µM
[31] = second compound 10 µM, first compound 0.0316 µM
[32] = second compound 10 µM, first compound 0.1 µM
[33] = second compound 10 µM, first compound 0.316 µM
[34] = second compound 10 µM, first compound 1 µM
[35] = second compound 10 µM, first compound 3.16 µM
[36] = second compound 10 µM, first compound 10 µM
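Note: spheroids exposed to compounds for seven days.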
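Throughout, for viability, T/C: 100% = DMSO vehicle control viability.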

Q: With `C=CC(=O)N1CCN(c2nc(=O)n(-c3c(C)ccnc3C(C)C)c3nc(-c4c(O)cccc4F)c(F)cc23)C(C)C1` (stereo unspecified) + Cc1cccc(N(C)C(=O)C2C(O)CCN2c2nc(C)cc(C(F)(F)F)c2C#N)c1 as the compound, how does the IC50 (second compound 0.0316 µM) read?
A: > 10 µM

Q: And the IC50 (second compound 0.1 µM)?
A: > 10 µM

Q: What about the IC50 (second compound 0.316 µM) of the same compound?
A: > 10 µM

Q: And the IC50 (second compound 1 µM)?
A: > 10 µM

Q: And the IC50 (second compound 3.16 µM)?
A: > 10 µM

Q: And the IC50 (second compound 10 µM)?
A: > 10 µM

Q: And the viability, T/C [1]?
A: 98.8%

Q: What about the viability, T/C [2] of the same compound?
A: 93.9%

Q: What about the viability, T/C [3] of the same compound?
A: 101%

Q: And the viability, T/C [4]?
A: 105%

Q: And the viability, T/C [5]?
A: 107%

Q: What about the viability, T/C [6] of the same compound?
A: 110%

Q: And the viability, T/C [7]?
A: 96.2%

Q: What about the viability, T/C [8] of the same compound?
A: 92.4%

Q: What about the viability, T/C [9] of the same compound?
A: 101%

Q: And the viability, T/C [10]?
A: 108%

Q: And the viability, T/C [11]?
A: 99.9%

Q: And the viability, T/C [12]?
A: 104%

Q: And the viability, T/C [13]?
A: 103%

Q: What about the viability, T/C [14] of the same compound?
A: 103%

Q: And the viability, T/C [15]?
A: 101%

Q: What about the viability, T/C [16] of the same compound?
A: 104%

Q: And the viability, T/C [17]?
A: 101%

Q: And the viability, T/C [18]?
A: 106%

Q: What about the viability, T/C [19] of the same compound?
A: 98.1%

Q: And the viability, T/C [20]?
A: 98.5%

Q: And the viability, T/C [21]?
A: 97.8%

Q: And the viability, T/C [22]?
A: 99.4%

Q: What about the viability, T/C [23] of the same compound?
A: 97.5%

Q: And the viability, T/C [24]?
A: 102%

Q: What about the viability, T/C [25] of the same compound?
A: 97.8%

Q: And the viability, T/C [26]?
A: 84.5%

Q: And the viability, T/C [27]?
A: 97.9%

Q: What about the viability, T/C [28] of the same compound?
A: 93.4%

Q: And the viability, T/C [29]?
A: 103%

Q: What about the viability, T/C [30] of the same compound?
A: 107%

Q: What about the viability, T/C [31] of the same compound?
A: 87.8%

Q: And the viability, T/C [32]?
A: 91.8%

Q: What about the viability, T/C [33] of the same compound?
A: 87.5%

Q: What about the viability, T/C [34] of the same compound?
A: 101%

Q: What about the viability, T/C [35] of the same compound?
A: 102%

Q: And the viability, T/C [36]?
A: 105%

Q: Which results are given for `CC1COCCN1c1cc(-c2ccnn2C)c2ccnc(-c3ccn[nH]3)c2n1` (stereo unspecified) + Cc1cccc(N(C)C(=O)C2C(O)CCN2c2nc(C)cc(C(F)(F)F)c2C#N)c1?
A: IC50 (second compound 0.0316 µM): 1.91 µM; IC50 (second compound 0.1 µM): 2.18 µM; IC50 (second compound 0.316 µM): 1.36 µM; IC50 (second compound 1 µM): 1.89 µM; IC50 (second compound 3.16 µM): 1.98 µM; IC50 (second compound 10 µM): 1.79 µM; viability, T/C [1]: 97.1%; viability, T/C [2]: 83%; viability, T/C [3]: 61.4%; viability, T/C [4]: 53.4%; viability, T/C [5]: 49%; viability, T/C [6]: 46.5%; viability, T/C [7]: 95.2%; viability, T/C [8]: 83.1%; viability, T/C [9]: 66.1%; viability, T/C [10]: 51.1%; viability, T/C [11]: 49.1%; viability, T/C [12]: 48.4%; viability, T/C [13]: 104%; viability, T/C [14]: 83.5%; viability, T/C [15]: 65.3%; viability, T/C [16]: 46.4%; viability, T/C [17]: 49.5%; viability, T/C [18]: 46.9%; viability, T/C [19]: 89.3%; viability, T/C [20]: 77.8%; viability, T/C [21]: 59.9%; viability, T/C [22]: 46.1%; viability, T/C [23]: 52.8%; viability, T/C [24]: 49.5%; viability, T/C [25]: 97.9%; viability, T/C [26]: 78.7%; viability, T/C [27]: 66.1%; viability, T/C [28]: 48.5%; viability, T/C [29]: 49%; viability, T/C [30]: 48%; viability, T/C [31]: 86.5%; viability, T/C [32]: 74.2%; viability, T/C [33]: 61.2%; viability, T/C [34]: 49.5%; viability, T/C [35]: 50.4%; viability, T/C [36]: 47.1%

Q: Which IC50 (second compound 0.0316 µM) does the source give for `CC1COCCN1c1cc(C2(S(C)(=N)=O)CC2)nc(-c2ccnc3[nH]ccc23)n1` (stereo unspecified) + Cc1cccc(N(C)C(=O)C2C(O)CCN2c2nc(C)cc(C(F)(F)F)c2C#N)c1 here?
A: > 10 µM

Q: What about the IC50 (second compound 0.1 µM) of the same compound?
A: > 10 µM

Q: And the IC50 (second compound 0.316 µM)?
A: > 10 µM

Q: What about the IC50 (second compound 1 µM) of the same compound?
A: > 10 µM

Q: What about the IC50 (second compound 3.16 µM) of the same compound?
A: > 10 µM

Q: And the IC50 (second compound 10 µM)?
A: > 10 µM

Q: What about the viability, T/C [1] of the same compound?
A: 104%

Q: And the viability, T/C [2]?
A: 99.1%

Q: And the viability, T/C [3]?
A: 101%

Q: And the viability, T/C [4]?
A: 95.1%

Q: And the viability, T/C [5]?
A: 101%

Q: What about the viability, T/C [6] of the same compound?
A: 82.5%

Q: What about the viability, T/C [7] of the same compound?
A: 107%

Q: What about the viability, T/C [8] of the same compound?
A: 101%

Q: What about the viability, T/C [9] of the same compound?
A: 98.5%

Q: And the viability, T/C [10]?
A: 93.8%

Q: What about the viability, T/C [11] of the same compound?
A: 95.5%

Q: What about the viability, T/C [12] of the same compound?
A: 81.2%

Q: What about the viability, T/C [13] of the same compound?
A: 105%

Q: And the viability, T/C [14]?
A: 95.7%

Q: What about the viability, T/C [15] of the same compound?
A: 100%

Q: And the viability, T/C [16]?
A: 93.4%

Q: What about the viability, T/C [17] of the same compound?
A: 91.7%

Q: And the viability, T/C [18]?
A: 88.8%

Q: And the viability, T/C [19]?
A: 91.1%

Q: And the viability, T/C [20]?
A: 91.6%

Q: What about the viability, T/C [21] of the same compound?
A: 101%

Q: And the viability, T/C [22]?
A: 103%

Q: What about the viability, T/C [23] of the same compound?
A: 107%

Q: What about the viability, T/C [24] of the same compound?
A: 80.9%

Q: And the viability, T/C [25]?
A: 103%

Q: What about the viability, T/C [26] of the same compound?
A: 89.8%

Q: What about the viability, T/C [27] of the same compound?
A: 89.7%

Q: What about the viability, T/C [28] of the same compound?
A: 89.9%

Q: And the viability, T/C [29]?
A: 97%

Q: And the viability, T/C [30]?
A: 73.9%

Q: What about the viability, T/C [31] of the same compound?
A: 93.1%

Q: And the viability, T/C [32]?
A: 96.8%

Q: And the viability, T/C [33]?
A: 91.9%

Q: And the viability, T/C [34]?
A: 87.8%

Q: And the viability, T/C [35]?
A: 92.8%

Q: And the viability, T/C [36]?
A: 67.1%
